{"source": "patent US12577213B2", "about": "(NINGBO COMBIREG PHARMACEUTICAL TECHNOLOGY CO., LTD., priority 2020, dated 2026)", "test_system": "xenograft of human lung cancer NCI-H522 in nude mice", "assay": "Xenograft tumor growth inhibition, NCI-H522", "format": "in vivo, BALB/c nude mice", "settings": "iv., q4d × 6", "method": "The embodiment compound was prepared as a 40× stock solution of DMSO and diluted to the administered concentration with saline containing 2.5% Tween 80 (Tween 80) used before;\nMale BALB/c nude mice, 4-5 weeks old, were purchased from Beijing Vital River Laboratory Animal Technology Co., Ltd, with a license No. SCXK(Beijing)2012-0001, and the mice were bred in the SPF-class laboratory animal center of Tsinghua University. The tumor lines used in the experiment were: xenograft of human lung cancer NCI-H522 in nude mice, xenograft of human colon cancer HCT-116 in nude mice.\nTumor-bearing animals with good tumor growth and overall condition were selected and sacrificed by cervical dislocation. The tumors were removed under aseptic condition, cut into tumors with 2-3 mm diameter by a scalpel, and inoculated subcutaneously behind the armpit of nude mice by trocar. The tumors grew naturally and were randomly grouped after the tumor volume grew to 105 mm^3, and the administration date of grouping was set as D0 (Day 0).\nGrouping experiment, with 7-9 animals in each group, starting from now on, administration was started according to the weight of the animals. During the administration process, the long, short diameter of the tumors and weight of animals were measured every 2-3 days, and the tumor size was calculated by the formula: (½)×long diameter×(short diameter)^2, and the experiment was ended on the 27th day (D27) after grouping. At the end of the experiment, the animals were sacrificed by cervical dislocation, the tumors were peeled off and weighed, and the inhibitory rates of the drugs on tumor growth were calculated. Tumor volume (TV) and relative tumor volume (RTV) were calculated. T test was used to compare the statistical significance of the differences in tumor weight, tumor volume and RTV of the animals in each group.\nCalculation formulas are as follows: average tumor weight in the vehicle control group−average tumor weight in the treatment group Tumor inhibition rate (%)=(average tumor weight in the vehicle control group−average tumor weight in the treatment group)[…](average tumor weight in the vehicle control)×100. Tumor volume (TV)=(length×width^2)/2. Relative tumor volume (RTV)=Vt/Vo (wherein, Vo is the TV measured at the time of grouping and administration, and Vt is the TV at each subsequent measurement).\n[formula] • Efficacy evaluation criteria: T/C (%)>40 is invalid; • T/C (%)≤40, and P<0.05 is effective after statistical processing. 4."}
{"smiles": "[2H]C([2H])([2H])Oc1cc(C(=O)Nc2cc3c(cc2Oc2cc(C)cc(C)c2)C(=O)N[C@@H](CC(=O)N(C([2H])([2H])C([2H])([2H])[2H])C([2H])([2H])C([2H])([2H])[2H])C(=O)N3)c(Br)c(OC([2H])([2H])[2H])c1OC([2H])([2H])[2H]", "note": "[Compound 5, (S)-2-bromo-N-[3-[2-[bis(pentadeuteroethyl)amino]-2-oxoethyl]-7-(3,5-dimethylphenoxy)-2,5-dioxo-2,3,4,5-tetrahydro-1H-benzo[e][1,4]diazepin-8-yl]-3,4,5-tris(trideuteromethoxy)benzamide]", "values": [{"measurement": "T/C (%)", "setting": "12.5 mg/kg", "value": 31.7, "unit": "%"}, {"measurement": "Tumor weight inhibition (%)", "setting": "12.5 mg/kg", "value": 72.03, "unit": "%"}, {"measurement": "T/C (%)", "setting": "25 mg/kg", "value": 21.2, "unit": "%"}, {"measurement": "Tumor weight inhibition (%)", "setting": "25 mg/kg", "value": 84.20, "unit": "%"}, {"measurement": "T/C (%)", "setting": "50 mg/kg", "value": 14.2, "unit": "%"}, {"measurement": "Tumor weight inhibition (%)", "setting": "50 mg/kg", "value": 90.02, "unit": "%"}]}
